Laboratory results reported in patent US8822503B2, “2-pyridone compounds” (Taisho Pharmaceutical Co., Ltd, priority 2009, dated 2014).

Molecular target: T1, human liver GK (Homo sapiens, UniProt P35557)
T1 construct: GST (glutathione S-transferase) (N); made in house; host or cells: E. coli
T1 sequence (P35557 1-466 isoform P35557-2): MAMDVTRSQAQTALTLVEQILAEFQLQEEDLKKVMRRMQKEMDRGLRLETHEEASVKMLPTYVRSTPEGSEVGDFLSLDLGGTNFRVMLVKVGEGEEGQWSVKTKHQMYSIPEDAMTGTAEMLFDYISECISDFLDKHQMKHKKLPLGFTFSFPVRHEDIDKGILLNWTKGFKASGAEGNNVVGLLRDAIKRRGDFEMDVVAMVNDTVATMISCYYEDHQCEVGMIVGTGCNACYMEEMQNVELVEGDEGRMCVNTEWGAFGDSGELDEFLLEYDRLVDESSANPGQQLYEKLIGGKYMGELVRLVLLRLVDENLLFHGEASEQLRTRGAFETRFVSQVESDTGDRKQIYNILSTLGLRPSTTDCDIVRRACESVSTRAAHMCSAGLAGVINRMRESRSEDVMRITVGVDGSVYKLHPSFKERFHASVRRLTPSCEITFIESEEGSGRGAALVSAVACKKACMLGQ
Assay: GK activation test
Format: biochemical
Conditions: test compound concentration needed to activate 50% of maximum activation ability; 4 mM 14C-labeled glucose, 2 mM ATP, room temperature, 20 minutes
Procedure, shortened: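 GST-tagged human liver GK from E. coli (0.24 μg/well) with 4 mM 14C-glucose, 2 mM ATP in Hepes-KOH pH 7.1, KCl, MgCl2, DTT, 1% DMSO, 20 min room temperature. Labeled glucose 6-phosphate captured on anion resin, eluted and counted. EC50 = concentration giving half of maximal activation.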

SMILES | EC50 [nM]
O=C1CC[C@H](/C=C(\c2ccc(S(=O)(=O)N3CCCC3)cc2)c2ccc(C3CC3)c(=O)[nH]2)N1 [Example 4-136, 3-Cyclopropyl-6-{(E)-2-[(2R)-5-oxopyrrolidin-2-yl]-1-[4-(pyrrolidin-1-ylsulfonyl)phenyl]ethenyl}pyridin-2(1H)-one] | 10 to 500
NS(=O)(=O)c1ccc(/C(=C\[C@H]2CCC(=O)N2)c2ccc(C3CC3)c(=O)[nH]2)cc1 [Example 4-137, 4-{(E)-1-(5-Cyclopropyl-6-oxo-1,6-dihydropyridin-2-yl)-2-[(2R)-5-oxopyrrolidin-2-yl]ethenyl}benzenesulfonamide] | 10 to 500
O=C1CC[C@H](/C=C(\c2ccc(S(=O)(=O)N3CCOCC3)cc2)c2ccc(C3CC3)c(=O)[nH]2)N1 [Example 4-138, 3-Cyclopropyl-6-{(E)-1-[4-(morpholin-4-ylsulfonyl)phenyl]-2-[(2R)-5-oxopyrrolidin-2-yl]ethenyl}pyridin-2(1H)-one] | 10 to 500
CN(C)S(=O)(=O)Nc1ccc(/C(=C\[C@H]2CCC(=O)N2)c2ccc(C3CC3)c(=O)[nH]2)cc1 [Example 4-139, N′-(4-{(E)-1-(5-Cyclopropyl-6-oxo-1,6-dihydropyridin-2-yl)-2-[(2R)-5-oxopyrrolidin-2-yl]ethenyl}phenyl)-N,N-dimethylsulfuric acid diamide] | 10 to 500
CN(CCO)S(=O)(=O)c1ccc(/C(=C\[C@H]2CCC(=O)N2)c2ccc(C3CC3)c(=O)[nH]2)cc1 [Example 4-140, 4-{(E)-1-(5-Cyclopropyl-6-oxo-1,6-dihydropyridin-2-yl)-2-[(2R)-5-oxopyrrolidin-2-yl]ethenyl}-N-(2-hydroxyethyl)-N-methylbenzenesulfonamide] | 10 to 500
O=C1CC[C@H](/C=C(\c2ccc(SC(F)(F)F)cc2)c2ccc(C3CC3)c(=O)[nH]2)N1 [Example 4-141, 3-Cyclopropyl-6-[(E)-2-[(2R)-5-oxopyrrolidin-2-yl]-1-{4-[(trifluoromethyl)sulfanyl]phenyl}ethenyl]pyridin-2(1H)-one] | 10 to 500
CS(=O)(=O)c1ccc(/C(=C\[C@H]2CCC(=O)N2)c2ccc(C3CC3)c(=O)[nH]2)cn1 [Example 4-142, 3-Cyclopropyl-6-{(E)-1-[6-(methylsulfonyl)pyridin-3-yl]-2-[(2R)-5-oxopyrrolidin-2-yl]ethenyl}pyridin-2(1H)-one] | 500 to 3000
O=C1CC[C@H](/C=C(\c2ccc(OC3CCOCC3)c(Cl)c2)c2ccc(C3CC3)c(=O)[nH]2)N1 [Example 4-143, 6-{(E)-1-[3-Chloro-4-(tetrahydro-2H-pyran-4-yloxy)phenyl]-2-[(2R)-5-oxopyrrolidin-2-yl]ethenyl}-3-cyclopropylpyridin-2(1H)-one] | 10 to 500
O=C1CC[C@H](/C=C(\c2ccncc2)c2ccc(C3CC3)c(=O)[nH]2)N1 [Example 4-144, 3-Cyclopropyl-6-[(E)-2-[(2R)-5-oxopyrrolidin-2-yl]-1-(pyridin-4-yl)ethenyl]pyridin-2(1H)-one] | 3000 to 10000
O=C1CC[C@H](/C=C(\c2ccc(O)c(Cl)c2)c2ccc(C3CC3)c(=O)[nH]2)N1 [Example 4-145, 6-{(E)-1-(3-Chloro-4-hydroxyphenyl)-2-[(2R)-5-oxopyrrolidin-2-yl]ethenyl}-3-cyclopropylpyridin-2(1H)-one] | 10 to 500
CN1C(=O)CC[C@@H]1/C=C(\c1ccc(C(C)(C)C)cc1)c1ccc(Cl)c(=O)[nH]1 [Example 4-146, 6-{(E)-1-(4-tert-Butylphenyl)-2-[(2R)-1-methyl-5-oxopyrrolidin-2-yl]ethenyl}-3-chloropyridin-2(1H)-one] | 10 to 500
CC(C)c1ccc(/C(=C\[C@H]2CCC(=O)N2C)c2ccc(Cl)c(=O)[nH]2)cc1 [Example 4-147, 3-Chloro-6-{(E)-2-[(2R)-1-methyl-5-oxopyrrolidin-2-yl]-1-[4-(propan-2-yl)phenyl]ethenyl}pyridin-2(1H)-one] | 10 to 500
COc1cc(C(C)(C)C)ccc1/C(=C\[C@H]1CCC(=O)N1)c1ccc(Cl)c(=O)[nH]1 [Example 4-148, 6-{(E)-1-(4-tert-Butyl-2-methoxyphenyl)-2-[(2R)-5-oxopyrrolidin-2-yl]ethenyl}-3-chloropyridin-2(1H)-one] | 500 to 3000
O=C1CC[C@H](/C=C(\c2ccc3ccccc3c2)c2ccc(Cl)c(=O)[nH]2)N1 [Example 4-149, 3-Chloro-6-{(E)-1-(naphthalen-2-yl)-2-[(2R)-5-oxopyrrolidin-2-yl]ethenyl}pyridin-2(1H)-one] | 500 to 3000
O=C1CC[C@H](/C=C(/c2ccc(Cl)c(=O)[nH]2)c2cccc3ccccc23)N1 [Example 4-150, 3-Chloro-6-{(E)-1-(naphthalen-1-yl)-2-[(2R)-5-oxopyrrolidin-2-yl]ethenyl}pyridin-2(1H)-one] | 3000 to 10000
O=C1CC[C@H](/C=C(\c2ccc(-c3ccccc3)cc2)c2ccc(Cl)c(=O)[nH]2)N1 [Example 4-151, 6-{(E)-1-(Biphenyl-4-yl)-2-[(2R)-5-oxopyrrolidin-2-yl]ethenyl}-3-chloropyridin-2(1H)-one] | 500 to 3000
O=C1CC[C@H](/C=C(\c2ccc(Oc3ccccc3)cc2)c2ccc(Cl)c(=O)[nH]2)N1 [Example 4-152, 3-Chloro-6-[(E)-2-[(2R)-5-oxopyrrolidin-2-yl]-1-(4-phenoxyphenyl)ethenyl]pyridin-2(1H)-one] | 10 to 500
NC(=O)c1cccc(/C(=C\[C@H]2CCC(=O)N2)c2ccc(Cl)c(=O)[nH]2)c1 [Example 4-153, 3-{(E)-1-(5-Chloro-6-oxo-1,6-dihydropyridin-2-yl)-2-[(2R)-5-oxopyrrolidin-2-yl]ethenyl}benzamide] | 3000 to 10000
O=C1CC[C@H](/C=C(\c2ccc(OCc3ccccc3)cc2)c2ccc(Cl)c(=O)[nH]2)N1 [Example 4-154, 6-{(E)-1-[4-(Benzyloxy)phenyl]-2-[(2R)-5-oxopyrrolidin-2-yl]ethenyl}-3-chloropyridin-2(1H)-one] | 500 to 3000
CS(=O)(=O)Nc1ccc(/C(=C\[C@H]2CCC(=O)N2)c2ccc(Cl)c(=O)[nH]2)cc1 [Example 4-155, N-(4-{(E)-1-(5-Chloro-6-oxo-1,6-dihydropyridin-2-yl)-2-[(2R)-5-oxopyrrolidin-2-yl]ethenyl}phenyl)methanesulfonamide] | 500 to 3000
CC(C)NC(=O)Nc1ccc(/C(=C\[C@H]2CCC(=O)N2)c2ccc(Cl)c(=O)[nH]2)cc1 [Example 4-156, 1-(4-{(E)-1-(5-Chloro-6-oxo-1,6-dihydropyridin-2-yl)-2-[(2R)-5-oxopyrrolidin-2-yl]ethenyl}phenyl)-3-propan-2-ylurea] | 3000 to 10000
CS(=O)(=O)c1cc(/C(=C\[C@H]2CCC(=O)N2)c2ccc(Cl)c(=O)[nH]2)ccc1C(F)F [Example 4-157, 3-Chloro-6-{(E)-1-[4-(difluoromethyl)-3-(methylsulfonyl)phenyl]-2-[(2R)-5-oxopyrrolidin-2-yl]ethenyl}pyridin-2(1H)-one] | 3000 to 10000
C[S+]([O-])c1ccc(/C(=C\[C@H]2CCC(=O)N2)c2ccc(Cl)c(=O)[nH]2)cc1 (stereo partly drawn) [Example 4-158, 3-Chloro-6-{(E)-1-[4-(methylsulfinyl)phenyl]-2-[(2R)-5-oxopyrrolidin-2-yl]ethenyl}pyridin-2(1H)-one] | 3000 to 10000
CNC(=O)c1ccc(/C(=C\[C@H]2CCC(=O)N2)c2ccc(Cl)c(=O)[nH]2)cc1 [Example 4-159, 4-{(E)-1-(5-Chloro-6-oxo-1,6-dihydropyridin-2-yl)-2-[(2R)-5-oxopyrrolidin-2-yl]ethenyl}-N-methylbenzamide] | 3000 to 10000
NC(=O)c1ccc(/C(=C\[C@H]2CCC(=O)N2)c2ccc(Cl)c(=O)[nH]2)cc1 [Example 4-160, 4-{(E)-1-(5-Chloro-6-oxo-1,6-dihydropyridin-2-yl)-2-[(2R)-5-oxopyrrolidin-2-yl]ethenyl}benzamide] | 3000 to 10000
CN(C)C(=O)c1ccc(/C(=C\[C@H]2CCC(=O)N2)c2ccc(Cl)c(=O)[nH]2)cc1 [Example 4-161, 4-{(E)-1-(5-Chloro-6-oxo-1,6-dihydropyridin-2-yl)-2-[(2R)-5-oxopyrrolidin-2-yl]ethenyl}-N,N-dimethylbenzamide] | 3000 to 10000
CC(C)(C)c1ccc(/C(=C\[C@H]2CCC(=O)N2)c2ccc(Cl)c(=O)[nH]2)c(O)c1 [Example 4-162, 6-{(E)-1-(4-tert-Butyl-2-hydroxyphenyl)-2-[(2R)-5-oxopyrrolidin-2-yl]ethenyl}-3-chloropyridin-2(1H)-one] | 10 to 500
CC(=O)Nc1cccc(/C(=C\[C@H]2CCC(=O)N2)c2ccc(Cl)c(=O)[nH]2)c1 [Example 4-163, N-(3-{(E)-1-(5-Chloro-6-oxo-1,6-dihydropyridin-2-yl)-2-[(2R)-5-oxopyrrolidin-2-yl]ethenyl}phenyl)acetamide] | 3000 to 10000
CC(C)(C)c1ccc(/C(=C\[C@H]2CCC(=O)N2)c2ccc(OC(F)F)c(=O)[nH]2)cc1 [Example 4-165, 6-{(E)-1-(4-tert-Butylphenyl)-2-[(2R)-5-oxopyrrolidin-2-yl]ethenyl}-3-(difluoromethoxy)pyridin-2(1H)-one] | 10 to 500
CC(C)Oc1ccc(/C(=C/[C@H]2CCC(=O)N2)c2ccc(C(C)(C)C)cc2)[nH]c1=O [Example 4-166, 6-{(E)-1-(4-tert-Butylphenyl)-2-[(2R)-5-oxopyrrolidin-2-yl]ethenyl}-3-(propan-2-yloxy)pyridin-2(1H)-one] | 500 to 3000
